# Patent US10820597B2, “Phytosanitary composition comprising essential oils that potentiate antifungal activity” (BIOFUNGITEK, S. L., priority 2011, dated 2020)
# “And” between values parts separate entries of the source, which are not always exact repeats. Equal entries are not always repeated. Where two headings read alike, the source gives them in different places.
# Columns and labels:
# Alternaria alternata [1] = assay: Treated tomato leaves infected with A. alternata, % infection; assay type: in vivo
# Cercospora beticola = assay: Growth of C. beticola on PDA, colony diameter; assay type: cell-based
# Method: Cercospora beticola was cultured on PDA (potato dextrose agar) culture medium buffered to a pH value not exceeding 9.5. […] The % inhibition was calculated with the following formula:
# [formula] wherein “colony diameter (control)” is the size of the control colony (without the compounds to be tested) and “colony diameter (x)” is the size of the colony with the substance(s) to be tested. A fixed K2CO3 concentration of 7.24 mM was tested in C. beticola.
# The fungus C. beticola was cultured in a similar way to Example 16 with 10 ppm of carvacrol.
# The fungus C. beticola was cultured in a similar way to Example 16 with a fixed concentration of K2CO3 (7.24 mM) and carvacrol (10 ppm).
# Botrytis cinerea [2] = assay: Treated tomato leaves infected with B. cinerea, % infection after two weeks; assay type: in vivo
# Phytophthora infestans = assay type: in vivo; conditions: tomato plants
# Botrytis cinerea [3] = assay: Growth of B. cinerea in PDB liquid culture, optical density after 24 h; assay type: cell-based
# Penicillium digitatum [4] = assay: Growth of P. digitatum in liquid culture, optical density after 24 h; assay type: cell-based
# Alternaria alternata [5] = assay: Growth of A. alternata in liquid culture, optical density after 24 h; assay type: cell-based
# Leveillula taurica = assay type: in vivo
# Penicillium digitatum [6] = conditions: green mold on oranges; cited from earlier work
# [7] = carvacrol 308 ppm, listed as carvacrol
# [8] = K2CO3 concentration between 3.5 and 5 mM
# [9] = thymol 350 ppm, listed as thymol
structure (smiles),measurement,setting,value
"Cc1ccc(C(C)C)cc1O [Carvacrol, carvacrol]",Inhibition ± SD (%),Alternaria alternata [1]; carvacrol 26 ppm,4.3%
same,Inhibition ± SD (%),Alternaria alternata [1]; carvacrol 31 ppm,5.8%
same,Inhibition ± SD (%),Alternaria alternata [1]; carvacrol 100 ppm,11.4%
same,Inhibition ± SD (%),Alternaria alternata [1]; carvacrol 200 ppm,16.1%
same,Inhibition ± SD (%),Alternaria alternata [1]; carvacrol 308 ppm,18% and 18.4%
same,inhibition at 10 ppm,"Cercospora beticola; Cercospora beticola, carvacrol 10 ppm, read-out: Inhibition ± SD (%)",17%
same,Inhibition ± SD (%),Botrytis cinerea [2]; carvacrol 26 ppm,7.2%
same,Inhibition ± SD (%),Botrytis cinerea [2]; carvacrol 31 ppm,7.4%
same,Inhibition ± SD (%),Botrytis cinerea [2]; carvacrol 100 ppm,16.7%
same,Inhibition ± SD (%),Botrytis cinerea [2]; carvacrol 200 ppm,18.6%
same,Inhibition ± SD (%),Botrytis cinerea [2]; carvacrol 308 ppm,20.8%
same,Inhibition ± SD (%),Botrytis cinerea [2]; [7],21%
same,Inhibition ± SD (%),Phytophthora infestans; carvacrol 26 ppm,3.2 ± 0.8%
same,Inhibition ± SD (%),Phytophthora infestans; carvacrol 150 ppm,17.1 ± 2.3%
same,Inhibition ± SD (%),Phytophthora infestans; carvacrol 308 ppm,35.0 ± 4.8%
same,Inhibition ± SD (%),Phytophthora infestans; [7],35%
same,inhibition at 0.1 ppm,"Botrytis cinerea [3]; Botrytis cinerea, 24 h, read-out: Inhibition ± SD (%), carvacrol 0.1 ppm, 24 h OD",0%
same,inhibition at 0.31 ppm,"Botrytis cinerea [3]; Botrytis cinerea, 24 h, read-out: Inhibition ± SD (%), carvacrol 0.31 ppm, 24 h OD",10.5 ± 7.7%
same,inhibition at 1 ppm,"Botrytis cinerea [3]; Botrytis cinerea, 24 h, read-out: Inhibition ± SD (%), carvacrol 1 ppm, 24 h OD",13.7 ± 4.1%
same,inhibition at 3.1 ppm,"Botrytis cinerea [3]; Botrytis cinerea, 24 h, read-out: Inhibition ± SD (%), carvacrol 3.1 ppm, 24 h OD",22.4 ± 3.4%
same,inhibition at 10 ppm,"Botrytis cinerea [3]; Botrytis cinerea, 24 h, read-out: Inhibition ± SD (%), carvacrol 10 ppm, 24 h OD",21%
same,inhibition at 31 ppm,"Botrytis cinerea [3]; Botrytis cinerea, 24 h, read-out: Inhibition ± SD (%), carvacrol 31 ppm, 24 h OD",51.4 ± 5.5%
same,inhibition at 100 ppm,"Botrytis cinerea [3]; Botrytis cinerea, 24 h, read-out: Inhibition ± SD (%), carvacrol 100 ppm, 24 h OD",74.4 ± 1.1%
same,Inhibition ± SD (%),"Botrytis cinerea [3]; carvacrol 10 ppm, 24 h OD",21.3 ± 5.0%
same,inhibition at 0.1 ppm,"Penicillium digitatum [4]; Penicillium digitatum, 24 h, read-out: Inhibition ± SD (%), carvacrol 0.1 ppm, 24 h OD",32.3 ± 2.8%
same,inhibition at 0.31 ppm,"Penicillium digitatum [4]; Penicillium digitatum, 24 h, read-out: Inhibition ± SD (%), carvacrol 0.31 ppm, 24 h OD",34.3 ± 2.8%
same,inhibition at 1 ppm,"Penicillium digitatum [4]; Penicillium digitatum, 24 h, read-out: Inhibition ± SD (%), carvacrol 1 ppm, 24 h OD",37.9 ± 3%
same,inhibition at 3.1 ppm,"Penicillium digitatum [4]; Penicillium digitatum, 24 h, read-out: Inhibition ± SD (%), carvacrol 3.1 ppm, 24 h OD",52.6 ± 2.2%
same,inhibition at 10 ppm,"Penicillium digitatum [4]; Penicillium digitatum, 24 h, read-out: Inhibition ± SD (%), carvacrol 10 ppm, 24 h OD",58%
same,inhibition at 31 ppm,"Penicillium digitatum [4]; Penicillium digitatum, 24 h, read-out: Inhibition ± SD (%), carvacrol 31 ppm, 24 h OD",86 ± 1.1%
same,inhibition at 100 ppm,"Penicillium digitatum [4]; Penicillium digitatum, 24 h, read-out: Inhibition ± SD (%), carvacrol 100 ppm, 24 h OD",100%
same,Inhibition ± SD (%),"Penicillium digitatum [4]; carvacrol 10 ppm, 24 h OD",57.8 ± 2.1%
same,inhibition at 0.1 ppm,"Alternaria alternata [5]; Alternaria alternata, read-out: Inhibition ± SD (%), carvacrol 0.1 ppm",0%
same,inhibition at 0.31 ppm,"Alternaria alternata [5]; Alternaria alternata, read-out: Inhibition ± SD (%), carvacrol 0.31 ppm",2 ± 0.3%
same,inhibition at 1 ppm,"Alternaria alternata [5]; Alternaria alternata, read-out: Inhibition ± SD (%), carvacrol 1 ppm",3.5 ± 0.8%
same,inhibition at 3.1 ppm,"Alternaria alternata [5]; Alternaria alternata, read-out: Inhibition ± SD (%), carvacrol 3.1 ppm",5.8 ± 1.4%
same,inhibition at 10 ppm,"Alternaria alternata [5]; Alternaria alternata, read-out: Inhibition ± SD (%), carvacrol 10 ppm",17.7 ± 11%
same,inhibition at 31 ppm,"Alternaria alternata [5]; Alternaria alternata, read-out: Inhibition ± SD (%), carvacrol 31 ppm",27%
same,inhibition at 100 ppm,"Alternaria alternata [5]; Alternaria alternata, read-out: Inhibition ± SD (%), carvacrol 100 ppm",74.6 ± 8%
same,Inhibition ± SD (%),Alternaria alternata [5]; carvacrol 31 ppm,27.2 ± 14.0%
"O=C([O-])[O-].[K+].[K+] [K2CO3, potassium carbonate]",Inhibition ± SD (%),Alternaria alternata [1]; K2CO3 12 mM,6.5%
same,Inhibition ± SD (%),Alternaria alternata [1]; K2CO3 13 mM,7%
same,Inhibition ± SD (%),Alternaria alternata [1]; K2CO3 14 mM,7.2%
same,Inhibition ± SD (%),Alternaria alternata [1]; K2CO3 15 mM,7.8%
same,Inhibition ± SD (%),Alternaria alternata [1]; K2CO3 22 mM,8.6%
same,Inhibition ± SD (%),Cercospora beticola; K2CO3 7.24 mM,25%
same,Inhibition ± SD (%),Botrytis cinerea [2]; K2CO3 12 mM,14% and 13.4%
same,Inhibition ± SD (%),Botrytis cinerea [2]; K2CO3 13 mM,14% and 13.5%
same,Inhibition ± SD (%),Botrytis cinerea [2]; K2CO3 14 mM,13.8%
same,Inhibition ± SD (%),Botrytis cinerea [2]; K2CO3 15 mM,13.8%
same,Inhibition ± SD (%),Botrytis cinerea [2]; K2CO3 22 mM,15.3%
same,Inhibition ± SD (%),"Leveillula taurica; K2CO3 15 mM, tomato plants",14%
same,Inhibition ± SD (%),Leveillula taurica; in vivo,14% and 13.9 ± 0.5%
same,Inhibition ± SD (%),Phytophthora infestans; K2CO3 15 mM,19% and 18.5 ± 3.6%
same,fungicide treatment efficacy,Penicillium digitatum [6],effective as fungicide treatment
same,Inhibition ± SD (%),"Botrytis cinerea [3]; K2CO3 3.5 mM, 24 h OD",48% and 48.2%
same,Inhibition ± SD (%),"Botrytis cinerea [3]; K2CO3 4.25 mM, 24 h OD",53.3%
same,Inhibition ± SD (%),"Botrytis cinerea [3]; K2CO3 4.5 mM, 24 h OD",67.2%
same,Inhibition ± SD (%),"Botrytis cinerea [3]; K2CO3 5 mM, 24 h OD",71.0%
same,inhibition of the culture,Botrytis cinerea [3]; [8],inhibition of the B. cinerea culture was observed
same,Inhibition ± SD (%),"Penicillium digitatum [4]; K2CO3 3.5 mM, 24 h OD",29% and 29.1%
same,Inhibition ± SD (%),"Penicillium digitatum [4]; K2CO3 4.25 mM, 24 h OD",33.0%
same,Inhibition ± SD (%),"Penicillium digitatum [4]; K2CO3 4.5 mM, 24 h OD",36.9%
same,Inhibition ± SD (%),"Penicillium digitatum [4]; K2CO3 5 mM, 24 h OD",39.5%
same,inhibition of the culture,Penicillium digitatum [4]; [8],inhibition of the P. digitatum culture was observed
same,Inhibition ± SD (%),"Alternaria alternata [5]; K2CO3 3.5 mM, 24 h OD",32% and 31.5%
same,Inhibition ± SD (%),"Alternaria alternata [5]; K2CO3 4.25 mM, 24 h OD",39.7%
same,Inhibition ± SD (%),"Alternaria alternata [5]; K2CO3 4.5 mM, 24 h OD",48.0%
same,Inhibition ± SD (%),"Alternaria alternata [5]; K2CO3 5 mM, 24 h OD",59.0%
same,inhibition of the culture,Alternaria alternata [5]; [8],inhibition of the A. alternata culture was observed
"Cc1ccc(C(C)C)c(O)c1 [Thymol, thymol]",Inhibition ± SD (%),Alternaria alternata [1]; thymol 35 ppm,10.0%
same,Inhibition ± SD (%),Alternaria alternata [1]; thymol 100 ppm,15.2%
same,Inhibition ± SD (%),Alternaria alternata [1]; thymol 200 ppm,19.3%
same,Inhibition ± SD (%),Alternaria alternata [1]; thymol 350 ppm,21.3%
same,Inhibition ± SD (%),Alternaria alternata [1]; [9],21%
same,Inhibition ± SD (%),Botrytis cinerea [2]; thymol 35 ppm,7.4%
same,Inhibition ± SD (%),Botrytis cinerea [2]; thymol 100 ppm,17.7%
same,Inhibition ± SD (%),Botrytis cinerea [2]; thymol 200 ppm,20.9%
same,Inhibition ± SD (%),Botrytis cinerea [2]; thymol 350 ppm,22.8%
same,Inhibition ± SD (%),Botrytis cinerea [2]; [9],23%
same,Inhibition ± SD (%),Phytophthora infestans; thymol 35 ppm,4.3 ± 0.7%
same,Inhibition ± SD (%),Phytophthora infestans; thymol 150 ppm,16.2 ± 3.2%
same,Inhibition ± SD (%),Phytophthora infestans; thymol 350 ppm,33.6 ± 5.6%
same,Inhibition ± SD (%),Phytophthora infestans; [9],34%
same,inhibition at 0.31 ppm,"Botrytis cinerea [3]; Botrytis cinerea, 24 h, thymol 0.31 ppm, 24 h OD, read-out: Inhibition ± SD (%)",0%
same,inhibition at 1 ppm,"Botrytis cinerea [3]; Botrytis cinerea, 24 h, thymol 1 ppm, 24 h OD, read-out: Inhibition ± SD (%)",2.1 ± 2.9%
same,inhibition at 3.1 ppm,"Botrytis cinerea [3]; Botrytis cinerea, 24 h, thymol 3.1 ppm, 24 h OD, read-out: Inhibition ± SD (%)",10.7 ± 2.3%
same,inhibition at 10 ppm,"Botrytis cinerea [3]; Botrytis cinerea, 24 h, thymol 10 ppm, 24 h OD, read-out: Inhibition ± SD (%)",13%
same,inhibition at 31 ppm,"Botrytis cinerea [3]; Botrytis cinerea, 24 h, thymol 31 ppm, 24 h OD, read-out: Inhibition ± SD (%)",32 ± 1.7%
same,inhibition at 100 ppm,"Botrytis cinerea [3]; Botrytis cinerea, 24 h, thymol 100 ppm, 24 h OD, read-out: Inhibition ± SD (%)",88.2 ± 0.6%
same,Inhibition ± SD (%),"Botrytis cinerea [3]; thymol 10 ppm, 24 h OD",12.6 ± 2.4%
same,inhibition at 0.31 ppm,"Penicillium digitatum [4]; Penicillium digitatum, 24 h, thymol 0.31 ppm, 24 h OD, read-out: Inhibition ± SD (%)",28.2 ± 3.9%
same,inhibition at 1 ppm,"Penicillium digitatum [4]; Penicillium digitatum, 24 h, thymol 1 ppm, 24 h OD, read-out: Inhibition ± SD (%)",24.2 ± 6%
same,inhibition at 3.1 ppm,"Penicillium digitatum [4]; Penicillium digitatum, 24 h, thymol 3.1 ppm, 24 h OD, read-out: Inhibition ± SD (%)",36.3 ± 2.3%
same,inhibition at 10 ppm,"Penicillium digitatum [4]; Penicillium digitatum, 24 h, thymol 10 ppm, 24 h OD, read-out: Inhibition ± SD (%)",36.2 ± 2%
same,inhibition at 31 ppm,"Penicillium digitatum [4]; Penicillium digitatum, 24 h, thymol 31 ppm, 24 h OD, read-out: Inhibition ± SD (%)",51%
same,inhibition at 100 ppm,"Penicillium digitatum [4]; Penicillium digitatum, 24 h, thymol 100 ppm (first column headed 100), 24 h OD, read-out: Inhibition ± SD (%)",78.3 ± 2.2%
same,inhibition at 100 ppm,"Penicillium digitatum [4]; Penicillium digitatum, 24 h, thymol 100 ppm (second column headed 100), 24 h OD, read-out: Inhibition ± SD (%)",95.6 ± 0.5%
same,Inhibition ± SD (%),"Penicillium digitatum [4]; thymol 31 ppm, 24 h OD",50.7 ± 2.0%
same,inhibition at 0.31 ppm,"Alternaria alternata [5]; Alternaria alternata, thymol 0.31 ppm, 24 h OD, read-out: Inhibition ± SD (%)",0%
same,inhibition at 1 ppm,"Alternaria alternata [5]; Alternaria alternata, thymol 1 ppm, 24 h OD, read-out: Inhibition ± SD (%)",4.1 ± 2.9%
same,inhibition at 3.1 ppm,"Alternaria alternata [5]; Alternaria alternata, thymol 3.1 ppm, 24 h OD, read-out: Inhibition ± SD (%)",10.4 ± 2.6%
same,inhibition at 10 ppm,"Alternaria alternata [5]; Alternaria alternata, thymol 10 ppm, 24 h OD, read-out: Inhibition ± SD (%)",16 ± 2%
same,inhibition at 31 ppm,"Alternaria alternata [5]; Alternaria alternata, thymol 31 ppm, 24 h OD, read-out: Inhibition ± SD (%)",29%
same,inhibition at 100 ppm,"Alternaria alternata [5]; Alternaria alternata, thymol 100 ppm, 24 h OD, read-out: Inhibition ± SD (%)",69.4%
